Columns and labels:
Experiment in all cases: MIC, antibacterial and synergistic activity
Assay type in all cases: cell-based
E. coli JMI 10768 [1] = conditions: E. coli JMI 10768 (CTX-M15 (Weak ESBL)); Meropenem + inhibitor at 4 µg/mL
P. aerug JMI 2686 [2] = conditions: P. aerug JMI 2686 (KPC-2 (Cpase))
Outline: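 This antibacterial synergy assay measured the minimum inhibitory concentration of antibiotics combined with the disclosed inhibitor compounds. The inhibitor was held at 4 µg/mL throughout. The aim was to see whether the added compound strengthened the antibiotic's action against the tested bacteria.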

E. coli JMI 2671 = test system: E. coli JMI 2671
Outline: (§1)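 Read-out is the MIC of each antibiotic with 4 µg/mL inhibitor present, in metallo β-lactamase-producing strains.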

K.pneumo JMI 4109 [3] = conditions: K.pneumo JMI 4109 (SHV-1, SHV-12)
Outline: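 Antibacterial synergy was assessed by pairing each inhibitor compound, at a constant concentration of 4 µg/mL, with β-lactam antibiotics. The combinations were run against bacterial strains that produce β-lactamases, and the readout was the minimum inhibitory concentration of the antibiotic in the presence of the inhibitor.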

E. coli JMI 10767 [4] = conditions: E. coli JMI 10767 (Wt)
Procedure: (§2) In the Tables 10 - 12, compounds herein disclosed were tested in combination with various antibiotics against metallo β-lactamase producing bacteria. Table 3: Synergy of the inhibitor Ex. 1 (4 µg/mL) in combination with antibiotics

E. coli JMI 10768 [5] = conditions: E. coli JMI 10768 (CTX-M15 (Weak ESBL))
Procedure: as §2

K. pneumo JMI 2699 = K. pneumo JMI 2699 (VIM-1, CTX-M3)
Outline: as §1

K. pneumo JMI 2673 [6] = conditions: K. pneumo JMI 2673 (CTX-M14 (ESBL))
Outline: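 Compounds were evaluated together with various antibiotics to measure synergistic antibacterial activity. For each combination, the minimum inhibitory concentration of the antibiotic was recorded while the inhibitor was present at a constant 4 µg/mL.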

K. pneumo JMI 4088 [7] = conditions: K. pneumo JMI 4088 (KPC-3 (Cpase))
Outline: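 Minimum inhibitory concentrations were measured for antibiotics given together with the test inhibitor, held at 4 µg/mL, against bacteria that produce β-lactamase. The purpose was to see whether the inhibitor restores or boosts antibacterial activity, that is, synergy with the antibiotic.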

E. coli JMI 10770 [8] = conditions: E. coli JMI 10770 (CTX-M15 (Hyper ESBL))
Procedure: as §2

E. coli JMI 2665 = test system: E. coli JMI 2665
Procedure: as §2

K. pneumo JMI 2674 [9] = conditions: K. pneumo JMI 2674 (CTX-M15 (ESBL))
Outline: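 Antibacterial activity was assessed as minimum inhibitory concentrations against a β-lactamase-producing bacterial strain. Each test inhibitor was combined with an antibiotic, with the inhibitor held at a fixed 4 µg/mL, to determine whether it acted synergistically and restored the antibiotic's effect against the resistant organism.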

K.pneumo JMI 4109 [10] = conditions: K.pneumo JMI 4109 (SHV-1, SHV-12); substance alone
P. aerug JMI 2686 [11] = conditions: P. aerug JMI 2686 (KPC-2 (Cpase)); substance alone
K. pneumo JMI 4106 = K. pneumo JMI 4106 (KPC-3, TEM-1, SHV-12, SHV-141)
K. pneumo JMI 4088 [12] = conditions: K. pneumo JMI 4088 (KPC-3 (Cpase)); substance alone
K. pneumo JMI 2674 [13] = conditions: K. pneumo JMI 2674 (CTX-M15 (ESBL)); substance alone
K. pneumo JMI 2697 = K. pneumo JMI 2697 (IMP-4 (Cpase))
Procedure: In the Tables 10 - 12, compounds herein disclosed were tested in combination with various antibiotics against metallo β-lactamase producing bacteria.

E. coli JMI 10767 [14] = conditions: E. coli JMI 10767 (Wt); remark: listed apart in the source
K. pneumo JMI 2673 [15] = conditions: K. pneumo JMI 2673 (CTX-M14 (ESBL)); substance alone
E. coli JMI 11103 = test system: E. coli JMI 11103
E. coli JMI 10770 [16] = conditions: Escherichia coli, JMI10770; E. coli JMI 10770 (CTX-M15 (Hyper ESBL)); substance alone
K. pneumo JMI 2681 = K. pneumo JMI 2681 (Oxa-48 (Cpase))
[17] = Aztreonam + inhibitor at 4 µg/mL
[18] = Ceftazidime + inhibitor at 4 µg/mL
[19] = Meropenem + inhibitor at 4 µg/mL

## O=C(NNC(=O)[C@H]1CC[C@H]2CN1C(=O)N2OS(=O)(=O)O)C1CNC1 (stereo in doubt) [Ex. 9, (2R,5S)-N'-(azetidin-3-ylcarbonyl)-7-oxo-6-(sulfooxy)-1,6-diazabicyclo[3.2.1]octane-2-carbohydrazide]
E. coli JMI 10768 [1]
  MIC Meropenem + inhibitor: ≤0.03 µg/mL
P. aerug JMI 2686 [2]; [17]
  MIC Aztreonam + inhibitor: >4 µg/mL
P. aerug JMI 2686 [2]; [18]
  MIC Ceftazidime + inhibitor: >16 µg/mL
P. aerug JMI 2686 [2]; [19]
  MIC Meropenem + inhibitor: >2 µg/mL
E. coli JMI 2671; E. coli JMI 2671 (VIM-19 (Cpase)), Aztreonam + inhibitor at 4 µg/mL
  MIC Aztreonam + inhibitor: ≤0.06 µg/mL
E. coli JMI 2671; E. coli JMI 2671 (VIM-19 (Cpase)), Ceftazidime + inhibitor at 4 µg/mL
  MIC Ceftazidime + inhibitor: 1 µg/mL
E. coli JMI 2671; E. coli JMI 2671 (VIM-19 (Cpase)), Meropenem + inhibitor at 4 µg/mL
  MIC Meropenem + inhibitor: 0.125 µg/mL
E. coli JMI 2671; Escherichia coli, JMI2671, E. coli JMI 2671 (VIM-19 (Cpase)), substance alone
  MIC: > 16 µg/mL
K.pneumo JMI 4109 [3]; [17]
  MIC Aztreonam + inhibitor: ≤0.06 µg/mL
K.pneumo JMI 4109 [3]; [18]
  MIC Ceftazidime + inhibitor: ≤0.25 µg/mL
K.pneumo JMI 4109 [3]; [19]
  MIC Meropenem + inhibitor: ≤0.03 µg/mL
E. coli JMI 10767 [4]; [17]
  MIC Aztreonam + inhibitor: ≤0.06 µg/mL
E. coli JMI 10767 [4]; [18]
  MIC Ceftazidime + inhibitor: ≤0.25 µg/mL
E. coli JMI 10768 [5]; [17]
  MIC Aztreonam + inhibitor: ≤0.06 µg/mL
E. coli JMI 10768 [5]; [18]
  MIC Ceftazidime + inhibitor: ≤0.25 µg/mL
E. coli JMI 10768 [5]; Escherichia coli, JMI10768, substance alone
  MIC: > 16 µg/mL
K. pneumo JMI 2699; [17]
  MIC Aztreonam + inhibitor: 0.06 µg/mL
K. pneumo JMI 2699; [18]
  MIC Ceftazidime + inhibitor: ≤0.25 µg/mL
K. pneumo JMI 2699; [19]
  MIC Meropenem + inhibitor: 0.5 µg/mL
K. pneumo JMI 2699; substance alone, read-out: MIC
  MIC: > 16 µg/mL
K. pneumo JMI 2673 [6]; [17]
  MIC Aztreonam + inhibitor: ≤0.06 µg/mL
K. pneumo JMI 2673 [6]; [18]
  MIC Ceftazidime + inhibitor: ≤0.25 µg/mL
K. pneumo JMI 2673 [6]; [19]
  MIC Meropenem + inhibitor: ≤0.03 µg/mL
K. pneumo JMI 4088 [7]; [17]
  MIC Aztreonam + inhibitor: 0.5 µg/mL
K. pneumo JMI 4088 [7]; [18]
  MIC Ceftazidime + inhibitor: ≤0.25 µg/mL
K. pneumo JMI 4088 [7]; [19]
  MIC Meropenem + inhibitor: 0.06 µg/mL
E. coli JMI 10770 [8]; [17]
  MIC Aztreonam + inhibitor: ≤0.06 µg/mL
E. coli JMI 10770 [8]; [18]
  MIC Ceftazidime + inhibitor: ≤0.25 µg/mL
E. coli JMI 10770 [8]; [19]
  MIC Meropenem + inhibitor: ≤0.03 µg/mL
E. coli JMI 2665; E. coli JMI 2665 (CMY-2 (Plasmid Cpase)), Aztreonam + inhibitor at 4 µg/mL
  MIC Aztreonam + inhibitor: ≤0.06 µg/mL
E. coli JMI 2665; E. coli JMI 2665 (CMY-2 (Plasmid Cpase)), Ceftazidime + inhibitor at 4 µg/mL
  MIC Ceftazidime + inhibitor: ≤0.25 µg/mL
E. coli JMI 2665; E. coli JMI 2665 (CMY-2 (Plasmid Cpase)), Meropenem + inhibitor at 4 µg/mL
  MIC Meropenem + inhibitor: ≤0.03 µg/mL
E. coli JMI 2665; Escherichia coli, JMI2665
  MIC: 8 µg/mL
K. pneumo JMI 2674 [9]; [17]
  MIC Aztreonam + inhibitor: 0.125 µg/mL
K. pneumo JMI 2674 [9]; [18]
  MIC Ceftazidime + inhibitor: ≤0.25 µg/mL
K. pneumo JMI 2674 [9]; [19]
  MIC Meropenem + inhibitor: 0.06 µg/mL
K.pneumo JMI 4109 [10]
  MIC: 4 µg/mL
P. aerug JMI 2686 [11]
  MIC: 16 µg/mL
K. pneumo JMI 4106; [17]
  MIC Aztreonam + inhibitor: 0.5 µg/mL
K. pneumo JMI 4106; [18]
  MIC Ceftazidime + inhibitor: ≤0.25 µg/mL
K. pneumo JMI 4106; [19]
  MIC Meropenem + inhibitor: 0.125 µg/mL
K. pneumo JMI 4106; substance alone, read-out: MIC
  MIC: 8 µg/mL
K. pneumo JMI 4088 [12]
  MIC: 16 µg/mL
K. pneumo JMI 2674 [13]
  MIC: > 16 µg/mL
K. pneumo JMI 2697; [17]
  MIC Aztreonam + inhibitor: ≤0.06 µg/mL
K. pneumo JMI 2697; [18]
  MIC Ceftazidime + inhibitor: 8 µg/mL
K. pneumo JMI 2697; [19]
  MIC Meropenem + inhibitor: 2 µg/mL
K. pneumo JMI 2697; substance alone
  MIC: 16 µg/mL
E. coli JMI 10767 [14]; [19]
  MIC Meropenem + inhibitor: ≤0.03 µg/mL
E. coli JMI 10767 [14]; Escherichia coli, JMI10767, substance alone
  MIC: > 16 µg/mL
K. pneumo JMI 2673 [15]
  MIC: > 16 µg/mL
E. coli JMI 11103; E. coli JMI 11103 (CTX-M15 (Intermediate ESBL)), Aztreonam + inhibitor at 4 µg/mL
  MIC Aztreonam + inhibitor: ≤0.06 µg/mL
E. coli JMI 11103; E. coli JMI 11103 (CTX-M15 (Intermediate ESBL)), Ceftazidime + inhibitor at 4 µg/mL
  MIC Ceftazidime + inhibitor: ≤0.25 µg/mL
E. coli JMI 11103; E. coli JMI 11103 (CTX-M15 (Intermediate ESBL)), Meropenem + inhibitor at 4 µg/mL
  MIC Meropenem + inhibitor: ≤0.03 µg/mL
E. coli JMI 11103; Escherichia coli, JMI11103, E. coli JMI 11103 (CTX-M15 (Intermediate ESBL)), substance alone
  MIC: > 16 µg/mL
E. coli JMI 10770 [16]
  MIC: > 16 µg/mL
K. pneumo JMI 2681; [17]
  MIC Aztreonam + inhibitor: 0.25 µg/mL
K. pneumo JMI 2681; [18]
  MIC Ceftazidime + inhibitor: ≤0.25 µg/mL
K. pneumo JMI 2681; [19]
  MIC Meropenem + inhibitor: >2 µg/mL
K. pneumo JMI 2681; substance alone, read-out: MIC
  MIC: > 16 µg/mL
